Experimental data: US11667645B2, “Granzyme B directed imaging and therapy” (CytoSite Biopharma Inc., priority 2018, dated 2023)

target: Granzyme B (human lymphocytes) (Homo sapiens (Human), UniProt P10144); test: human Granzyme B biochemical assay; details: Granzyme B (human lymphocytes) 5 nM, substrate Ac-IETD-AFC 200 μM, Cpd incubation with enzyme 30 mins, 22° C., read time 60 mins; read-out: IC50
Source text: The compounds of Formula I-VIII described above can be tested using the human Granzyme B biochemical assay provided below.
Materials: • 1. Granzyme B (human lymphocytes) Enzyme: Enzo Lifesciences, Cat #ALX-200-602-0010 • 2. Substrate (Ac-IETD-AFC): Enzo Lifesciences, Cat #ALX-260-110-M010 • 3. Standard inhibitor (Compound 20-Isomer3): Synthesized internally in TCG • 4. Dimethyl sulfoxide (DMSO): Sigma-Aldrich, Cat #41639 • 5. HEPES: Gibco, Cat #15630-080 • 6. Calcium chloride: Sigma-Aldrich, Cat #C-5080 • 7. Distilled water: Gibco, Cat #15230-162 • 8. Bovine serum albumin (BSA): Sigma-Aldrich, Cat #A3059 • 9. Black, clear bottom PDL plate (384 wells): Greiner bio-one, Cat #781946 • 10. Polypropylene plate (384 wells): Corning, Cat #3657 Assay Buffer Composition:
Compound Preparation: • 1. DMSO is added to the respective compound vial to make 10 mM Compound stock solution, which is stored at −20° C. • 2. 10 mM Compound stock solution is thawed and 1 mM DMSO stock solution is prepared by adding 45 μl of DMSO to 5 μl of 10 mM compound stock solution. • 3. 1 mM DMSO stock solution is serially diluted (3.16 fold) by adding 10 μl of 1 mM DMSO stock to 21.6 μl of DMSO and mixed well. 10 μl of the resulting solution is then added to 21.6 μl of DMSO and mixed well. This process is continued to create 11 dilution points for the assay standard inhibitor and 8 dilution points for test compounds in 384 well polypropylene plate. • 4. 2 μl of each dilution are dispensed in assay ready plate. • 5. Each well is then diluted 25 fold by adding 48 μl of assay buffer to 2 μl of compound in assay ready plate to make Compound working stock. Enzyme Preparation: • 1. Supplied Granzyme B (human lymphocytes) enzyme is reconstituted to 1 mg/ml (about 31.25 μM) and 1 μl aliquots are kept in −80° C. • 2. 1 μl aliquot is diluted to 625 nM by adding 49 μl of assay buffer containing 0.1% BSA and gently mixed. • 3. 10 nM enzyme working stock is prepared by adding assay buffer containing 0.1% BSA. Substrate Preparation: • 1. Supplied substrate (Ac-IETD-AFC) is reconstituted by adding DMSO to make 10 mM stock, aliquoted and stored in −80° C. • 2. 4 mM substrate mid stock is prepared by adding DMSO. • 3. Substrate working stock i.e. 800 μM is prepared by adding assay buffer. Assay Protocol: • 1. 10 μl of serially diluted Compound working stock (start dose 40 μM) is added from assay ready plate to assay plate according to the plate map. • 2. Positive control (40 μM of standard inhibitor) and negative control (4% DMSO buffer) are added to the respective wells. • 3. 20 μl of Enzyme working stock is added to assay plate and gently mixed. • 4. The plate is incubated at 22° C. for 30 mins and spun at 130 g for 1 minute. • 5. After incubation, 10 μl of Substrate working stock is added to respective wells and mixed (Assay plate is maintained in dark after substrate addition). • 6. The plate is incubated at 22° C. for 60 mins and spun at 130 g for 1 minute. • 7. Fluorescence read (RFU) (Ex: 400 nm/Em: 505 nm) is taken after 60 mins in EnVision Multimode plate reader. Final Assay Concentration:
Data Analysis: • 1. The RFU read is analyzed to calculate percent inhibition by normalizing with positive and negative controls taken as 100% and 0% effect respectively in Microsoft excel. • 2. Graph is generated by putting the analyzed data in GraphPad prism 5.0 software to get IC50 value for each compound.

Sequence of Granzyme B (human lymphocytes) (P10144 21-247): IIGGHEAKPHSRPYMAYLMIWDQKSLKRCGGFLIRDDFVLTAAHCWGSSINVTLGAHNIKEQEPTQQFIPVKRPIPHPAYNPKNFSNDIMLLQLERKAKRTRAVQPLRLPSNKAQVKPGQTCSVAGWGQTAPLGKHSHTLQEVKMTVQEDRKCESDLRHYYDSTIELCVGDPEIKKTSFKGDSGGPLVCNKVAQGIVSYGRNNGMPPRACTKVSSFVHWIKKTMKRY

Row | Compound | IC50 [µM]
1 | O=C(CNC(=O)c1ccccc1)N[C@H]1CCc2cccc3c2N(C1=O)[C@H](C(=O)NCc1c[nH]nn1)C3 [Compound C034, (2S,5S)-5-(2-Benzoylamino-acetylamino)-4-oxo-1,2,4,5,6,7-hexahydro-azepino[3,2,1-hi]indole-2-carboxylic acid (1H-[1,2,3]triazol-4-ylmethyl)-amide] | > 5
2 | O=C(N[C@@H](Cc1ccccc1)C(=O)N[C@H]1CCc2cccc3c2N(C1=O)[C@H](C(=O)NCc1c[nH]nn1)C3)c1ccccc1 [Compound C037] | 1 to 5
3 | CC(C)C[C@H](NC(=O)c1ccccc1)C(=O)N[C@H]1CCc2cccc3c2N(C1=O)[C@H](C(=O)NCc1c[nH]nn1)C3 [Compound C038, (2S,5S)-5-((S)-2-Benzoylamino-4-methyl-pentanoylamino)-4-oxo-1,2,4,5,6,7-hexahydro-azepino[3,2,1-hi]indole-2-carboxylic acid (1H-[1,2,3]triazol-4-ylmethyl)-amide] | 0.301 to 1
4 | O=C(N[C@@H](CO)C(=O)N[C@H]1CCc2cccc3c2N(C1=O)[C@H](C(=O)NCc1c[nH]nn1)C3)c1ccccc1 [Compound C040, (2S,5S)-5-((S)-2-Benzoylamino-3-hydroxy-propionylamino)-4-oxo-1,2,4,5,6,7-hexahydro-azepino[3,2,1-hi]indole-2-carboxylic acid (1H-[1,2,3]triazol-4-ylmethyl)-amide] | > 5
5 | O=C(O)CC[C@H](NC(=O)c1ccccc1)C(=O)N[C@H]1CCc2cccc3c2N(C1=O)[C@H](C(=O)NCc1c[nH]nn1)C3 [Compound C041, (S)-4-Benzoylamino-4-{(2S,5S)-4-oxo-2-[(1H-[1,2,3]triazol-4-ylmethyl)-carbamoyl]-1,2,4,5,6,7-hexahydro-azepino[3,2,1-hi]indol-5-ylcarbamoyl}-butyric acid] | > 5
6 | O=C(N[C@@H](Cc1ccc(F)cc1)C(=O)N[C@H]1CCc2cccc3c2N(C1=O)[C@H](C(=O)NCc1c[nH]nn1)C3)c1ccccc1 [Compound C043, (2S,5S)-5-[(S)-2-Benzoylamino-3-(4-fluoro-phenyl)-propionylamino]-4-oxo-1,2,4,5,6,7-hexahydro-azepino[3,2,1-hi]indole-2-carboxylic acid (1H-[1,2,3]triazol-4-ylmethyl)-amide] | > 5
7 | CC(C)(NC(=O)Cc1csc2ccccc12)C(=O)N[C@H]1CCc2cccc3c2N(C1=O)[C@H](C(=O)NCc1c[nH]nn1)C3 [Compound C044, (2S,5S)-5-[2-(2-Benzo[b]thiophen-3-yl-acetylamino)-2-methyl-propionylamino]-4-oxo-1,2,4,5,6,7-hexahydro-azepino[3,2,1-hi]indole-2-carboxylic acid (1H-[1,2,3]triazol-4-ylmethyl)-amide] | > 5
8 | CC(C)(C)[C@H](NC(=O)c1ccccc1)C(=O)N[C@H]1CCc2cccc3c2N(C1=O)[C@H](C(=O)NCc1c[nH]nn1)C3 [Compound C046, (2S,5S)-5-((S)-2-Benzoylamino-3,3-dimethyl-butyrylamino)-4-oxo-1,2,4,5,6,7-hexahydro-azepino[3,2,1-hi]indole-2-carboxylic acid (1H-[1,2,3]triazol-4-ylmethyl)-amide] | 0.301 to 1
9 | Cc1ccccc1C(=O)N[C@H](C(=O)N[C@H]1CCc2cccc3c2N(C1=O)[C@H](C(=O)NCc1c[nH]nn1)C3)C(C)C [Compound C050, (2S,5S)-5-[(S)-3-Methyl-2-(2-methyl-benzoylamino)-butyrylamino]-4-oxo-1,2,4,5,6,7-hexahydro-azepino[3,2,1-hi]indole-2-carboxylic acid (1H-[1,2,3]triazol-4-ylmethyl)-amide] | 0.001 to 0.3

Further lines, results first:

Row | IC50 [µM] | Compound
10 | 1 to 5 | CC(=O)N[C@@H](Cc1ccc(O)cc1)C(=O)N[C@H]1CCc2cccc3c2N(C1=O)[C@H](C(=O)NCc1c[nH]nn1)C3 [Compound C032, (2S,5S)-5-[(S)-2-Acetylamino-3-(4-hydroxy-phenyl)-propionylamino]-4-oxo-1,2,4,5,6,7-hexahydro-azepino[3,2,1-hi]indole-2-carboxylic acid(1H-[1,2,3]triazol-4-ylmethyl)amide]
11 | 1 to 5 | CC(=O)N[C@@H](Cc1ccc(F)cc1)C(=O)N[C@H]1CCc2cccc3c2N(C1=O)[C@H](C(=O)NCc1c[nH]nn1)C3 [Compound C033, (2S,5S)-5-[(S)-2-Acetylamino-3-(4-fluoro-phenyl)-propionylamino]-4-oxo-1,2,4,5,6,7-hexahydro-azepino[3,2,1-hi]indole-2-carboxylic acid (1H-[1,2,3]triazol-4-ylmethyl)-amide]
12 | > 5 | C[C@H](NC(=O)c1ccccc1)C(=O)N[C@H]1CCc2cccc3c2N(C1=O)[C@H](C(=O)NCc1c[nH]nn1)C3 [Compound C035, (2S,5S)-5-((S)-2-Benzoylamino-propionylamino)-4-oxo-1,2,4,5,6,7-hexahydro-azepino[3,2,1-hi]indole-2-carboxylic acid (1H-[1,2,3]triazol-4-ylmethyl)-amide]
13 | > 5 | O=C(N[C@@H](Cc1ccc(O)cc1)C(=O)N[C@H]1CCc2cccc3c2N(C1=O)[C@H](C(=O)NCc1c[nH]nn1)C3)c1ccccc1 [Compound C042, (2S,5S)-5-[(S)-2-Benzoylamino-3-(4-hydroxy-phenyl)-propionylamino]-4-oxo,2,4,5,6,7-hexahydro-azepino[3,2,1-hi]indole-2-carboxylic acid (1H-[1,2,3]triazol-4-ylmethyl)-amide]
14 | 1 to 5 | CC[C@H](NC(=O)c1ccccc1)C(=O)N[C@H]1CCc2cccc3c2N(C1=O)[C@H](C(=O)NCc1c[nH]nn1)C3 [Compound C045, (2S,5S)-5-((S)-2-Benzoylamino-butyrylamino)-4-oxo-1,2,4,5,6,7-hexahydro-azepino[3,2,1-hi]indole-2-carboxylic acid (1H-[1,2,3]triazol-4ylmethyl)-amide]
15 | 0.301 to 1 | CC(C)[C@H](NC(=O)c1ccc(F)cc1)C(=O)N[C@H]1CCc2cccc3c2N(C1=O)[C@H](C(=O)NCc1c[nH]nn1)C3 [Compound C047, (2S,5S)-5-[(S)-2-(4-Fluoro-benzoylamino)-3-methyl-butyrylamino]-4-oxo-1,2,4,5,6,7-hexahydro-azepino[3,2,1-hi]indole-2-carboxylic acid (1H-[1,2,3]triazol-4-ylmethyl)-amide]
16 | 0.001 to 0.3 | CC(C)[C@H](NC(=O)c1cccc(F)c1)C(=O)N[C@H]1CCc2cccc3c2N(C1=O)[C@H](C(=O)NCc1c[nH]nn1)C3 [Compound C048, (2S,5S)-5-[(S)-2-(3-Fluoro-benzoylamino)-3-methyl-butyrylamino]-4-oxo-1,2,4,5,6,7-hexahydro-azepino[3,2,1-hi]indole-2-carboxylic acid (1H-[1,2,3]triazol-4-ylmethyl)-amide]
17 | 0.301 to 1 | CC(C)[C@H](NC(=O)c1ccccc1F)C(=O)N[C@H]1CCc2cccc3c2N(C1=O)[C@H](C(=O)NCc1c[nH]nn1)C3 [Compound C049, (2S,5S)-5-[(S)-2-(2-Fluoro-benzoylamino)-3-methyl-butyrylamino]-4-oxo-1,2,4,5,6,7-hexahydro-azepino[3,2,1-hi]indole-2-carboxylic acid (1H-[1,2,3]triazol-4-ylmethyl)-amide]
18 | 0.001 to 0.3 | Cc1cccc(C(=O)N[C@H](C(=O)N[C@H]2CCc3cccc4c3N(C2=O)[C@H](C(=O)NCc2c[nH]nn2)C4)C(C)C)c1 [Compound C051, (2S,5S)-5-[(S)-3-Methyl-2-(3-methyl-benzoylamino)-butyrylamino]-4-oxo-1,2,4,5,6,7-hexahydro-azepino[3,2,1-hi]indole-2-carboxylic acid (1H-[1,2,3]triazol-4-ylmethyl)-amide]
